Reference: patent publication US20050282159A1, “Rpob gene of streptomyces, primer specific to streptomyces, and identification method of streptomyces having rifampin resistance or sensitivity by using the same” (priority 2001, published 2005)

Experiments:
Assay in all cases: rifampin-sensitive test on Bennet solid media
Type in all cases: cell-based
Set-up in all cases: key: “(+)” indicates a genotype with rifampin-resistance; “(−)” indicates a genotype with rifampin-susceptibility
[1] = tested on: S. chattanoogensis KCTC 1087; details: TCG (TCC) genotype, 25 ug/ml rifampin, 72 hr
Description: (§1) The 47 strains were respectively cultured at 28° C. for 72 hr in Bennet liquid media. The culture solution was then inoculated on Bennet solid media (yeast extract 1 g/L, Beef extract 1 g/L, Tryptone 2 g/L, Glycerol 10 g/L, Agar 15 g/L) containing 25 ug/ml rifampin, and after incubation for 72 hr, rifampin-resistance was tested.

[2] = tested on: S. cinnamonensis KCTC 9708; details: TCG (TCC) genotype, 25 ug/ml rifampin, 72 hr
Description: as §1

S. acrimycini KCTC 9679 = details: AAC genotype, 25 ug/ml rifampin, 72 hr
Description: as §1

S. aminophilus KCTC 9673 = details: AAC genotype, 25 ug/ml rifampin, 72 hr
Description: as §1

S. argenteolus KCTC 9695 = details: TCG (TCC) genotype, 25 ug/ml rifampin, 72 hr
Description: as §1

[3] = tested on: S. griseus griseus KCTC 9080; details: AAC genotype, 25 ug/ml rifampin, 72 hr
Description: as §1

[4] = tested on: S. cuspidosporus KCTC 9718; details: AAC genotype, 25 ug/ml rifampin, 72 hr
Description: as §1

S. ederensis KCTC 9726 = details: AAC genotype, 25 ug/ml rifampin, 72 hr
Description: as §1

S. pulveraceus KCTC 9766 = details: AAC genotype, 25 ug/ml rifampin, 72 hr
Description: as §1

[5] = tested on: S. cacoi asoensis KCTC 9700; details: TCG (TCC) genotype, 25 ug/ml rifampin, 72 hr
Description: as §1

Structure (SMILES): CO[C@H]1/C=C/O[C@@]2(C)Oc3c(C)c(O)c4c(O)c(c(/C=N/N5CCN(C)CC5)c(O)c4c3C2=O)NC(=O)/C(C)=C\C=C\[C@H](C)[C@H](O)[C@@H](C)[C@@H](O)[C@@H](C)[C@H](OC(C)=O)[C@@H]1C [rifampin]
- genotype (rifampin-resistance or susceptibility) [1]: −
- genotype (rifampin-resistance or susceptibility) [2]: −
- genotype (rifampin-resistance or susceptibility) (S. acrimycini KCTC 9679): +
- genotype (rifampin-resistance or susceptibility) (S. aminophilus KCTC 9673): +
- genotype (rifampin-resistance or susceptibility) (S. argenteolus KCTC 9695): −
- genotype (rifampin-resistance or susceptibility) [3]: +
- genotype (rifampin-resistance or susceptibility) [4]: +
- genotype (rifampin-resistance or susceptibility) (S. ederensis KCTC 9726): +
- genotype (rifampin-resistance or susceptibility) (S. pulveraceus KCTC 9766): +
- genotype (rifampin-resistance or susceptibility) [5]: −
